BigSolDB 2.1

Conditions: in water

Row | SMILES | solubility (mole fraction) (298.1 K) | solubility (mole fraction) (303.1 K) | solubility (mole fraction) (310.1 K) | solubility (mole fraction) (318.1 K) | solubility (mole fraction) (328.1 K)
1 | CCCCCCCCc1ccc(O)cc1 | 2.9e-07 | 3.4e-07 | 4.7e-07 | 6.4e-07 | 8.4e-07
2 | CCCCCCCCCc1ccc(O)cc1 | 4e-08 | 5e-08 | 7e-08 | 1.4e-07 | 2e-07
3 | CC(C)(C)CC(C)(C)c1ccc(O)cc1 | 1.32e-06 | 1.55e-06 | 1.91e-06 | 2.52e-06 | 3.83e-06
